Values of other authors in publication PMC3048208 (British Journal of Cancer, 2011).

Set-up: method as in Kelly et al, 2005; Steele et al, 2008
Settings: ref Kelly et al, 2005; Steele et al, 2008; cited from earlier work

SMILES: O=C(/C=C/c1cccc(S(=O)(=O)Nc2ccccc2)c1)NO [belinostat]
- half-life: 1 to 2 h

SMILES: O=C(CCCCCCC(=O)Nc1ccccc1)NO [vorinostat, suberoylanilide hydroxamic acid]
- half-life: 1 to 2 h
